pIC50: −log10 of the molar value.
How the values were obtained:
SHP2 = SHP2 (Homo sapiens (Human), UniProt Q06124); experiment: SHP2 Biochemical Assay (DiFMUP conversion, pIRS1-activated); details: Table 19; head prints unit as "-M"
Procedure, shortened: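 Human SHP2 (10 pM) pre-incubated 30 min with compound and […] pIRS1 activating peptide, then 50 μM DiFMUP added; buffer 25 mM Bis-Tris propane pH 7.0, 150 mM NaCl, 5% DMSO. Fluorescence rate (ex 360/em 450 nm) over 30 min; IC50 by four-parameter fit, averaged across experiments.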

[1] = system: pERK (phospho-p44/42 ERK) in HCC827 cells; experiment: Cellular pERK Inhibition Assay, Method A (In-Cell Western); type: cell-based; details: Homo sapiens, Table 19, head prints unit as "-M", read-out: pERK (IC50) Method A
Procedure, shortened: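 HCC827 cells in RPMI/10% FBS were treated with compounds in serum-free medium (0.2% DMSO final) at 37 °C for the indicated time, in quadruplicate. Fixed cells were immunostained for phospho-p44/42 ERK and read by infrared imaging. Blank-subtracted signal was expressed as % of DMSO control; IC50 from four-parameter logistic fit, averaged across experiments.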

Chain of SHP2 (Q06124 whole entry): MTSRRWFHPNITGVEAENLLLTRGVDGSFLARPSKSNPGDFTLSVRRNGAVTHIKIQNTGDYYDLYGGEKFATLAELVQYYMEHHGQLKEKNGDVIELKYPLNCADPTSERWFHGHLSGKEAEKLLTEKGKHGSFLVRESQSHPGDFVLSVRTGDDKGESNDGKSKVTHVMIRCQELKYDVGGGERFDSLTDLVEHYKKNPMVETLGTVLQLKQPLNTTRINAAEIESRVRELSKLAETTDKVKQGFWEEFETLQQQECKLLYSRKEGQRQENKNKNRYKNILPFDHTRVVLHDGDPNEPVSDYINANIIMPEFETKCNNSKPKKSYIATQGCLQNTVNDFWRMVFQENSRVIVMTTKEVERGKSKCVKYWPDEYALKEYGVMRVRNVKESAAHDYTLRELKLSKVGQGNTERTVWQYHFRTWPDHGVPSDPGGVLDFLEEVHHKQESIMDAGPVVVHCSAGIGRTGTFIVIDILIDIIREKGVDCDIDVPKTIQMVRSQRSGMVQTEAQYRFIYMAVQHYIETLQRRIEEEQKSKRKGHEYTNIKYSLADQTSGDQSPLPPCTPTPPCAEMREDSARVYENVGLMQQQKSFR

## Cc1nc2ccc(-c3c[nH]c4nc(N5CC6COCC(C5)N6)n(C)c(=O)c34)c(Cl)c2s1 [Example 81, 2-(3-oxa-7,9-diazabicyclo[3.3.1]nonan-7-yl)-5-(7-chloro-2-methylbenzo[d]thiazol-6-yl)-3-methyl-3,7-dihydro-4H-pyrrolo[2,3-d]pyrimidin-4-one]
SHP2
  pIC50: 7.85
[1]
  pIC50: 6.11

## CN(C)C(=O)Cn1nc2ccc(-c3c[nH]c4nc(N5C6CCCC5CNC6)n(C)c(=O)c34)c(Cl)c2c1Cl [Example 82, 2-(5-(2-(3,9-diazabicyclo[3.3.1]nonan-9-yl)-3-methyl-4-oxo-4,7-dihydro-3H-pyrrolo[2,3-d]pyrimidin-5-yl)-3,4-dichloro-2H-indazol-2-yl)-N,N-dimethylacetamide]
SHP2
  pIC50: 7.85
[1]
  pIC50: 6.04

## CN(C)C(=O)CCn1nc2ccc(-c3c[nH]c4nc(N5C6CCCC5CNC6)n(C)c(=O)c34)c(Cl)c2c1Cl [Example 83, 3-(5-(2-(3,9-diazabicyclo[3.3.1]nonan-9-yl)-3-methyl-4-oxo-4,7-dihydro-3H-pyrrolo[2,3-d]pyrimidin-5-yl)-3,4-dichloro-2H-indazol-2-yl)-N,N-dimethylpropanamide]
SHP2
  pIC50: 7.96
[1]
  pIC50: 6.72

## CN(C)C(=O)Cc1nc2ccc(-c3c[nH]c4nc(N5C6CCCC5CNC6)n(C)c(=O)c34)c(Cl)c2s1 [Example 84, 2-(6-(2-(3,9-diazabicyclo[3.3.1]nonan-9-yl)-3-methyl-4-oxo-4,7-dihydro-3H-pyrrolo[2,3-d]pyrimidin-5-yl)-7-chlorobenzo[d]thiazol-2-yl)-N,N-dimethylacetamide]
SHP2
  pIC50: 7.74
[1]
  pIC50: 6.26

## Cn1cc2c(Cl)c(-c3c[nH]c4nc(N5C6CNCC5COC6)n(C)c(=O)c34)ccc2n1 [Example 85, 2-(3-oxa-7,9-diazabicyclo[3.3.1]nonan-9-yl)-5-(4-chloro-2-methyl-2H-indazol-5-yl)-3-methyl-3,7-dihydro-4H-pyrrolo[2,3-d]pyrimidin-4-one]
SHP2
  pIC50: 7.89
[1]
  pIC50: 6.19

## CN(C)C(=O)Cn1cc2c(Cl)c(-c3c[nH]c4nc(N5C6CCC5CNC6)n(C)c(=O)c34)ccc2n1 [Example 86, 2-(5-(2-(3,8-diazabicyclo[3.2.1]octan-8-yl)-3-methyl-4-oxo-4,7-dihydro-3H-pyrrolo[2,3-d]pyrimidin-5-yl)-4-chloro-2H-indazol-2-yl)-N,N-dimethylacetamide]
SHP2
  pIC50: 7.23
[1]
  pIC50: 5.28

## Cn1nc2ccc(-c3c[nH]c4nc(N5C6CCC5CNC6)n(C)c(=O)c34)c(Cl)c2n1 [Example 87, 2-(3,8-diazabicyclo[3.2.1]octan-8-yl)-5-(4-chloro-2-methyl-2H-benzo[d][1,2,3]triazol-5-yl)-3-methyl-3,7-dihydro-4H-pyrrolo[2,3-d]pyrimidin-4-one]
SHP2
  pIC50: 7.17
[1]
  pIC50: 6.24

## CN(C)C(=O)CCn1cc2c(Cl)c(-c3c[nH]c4nc(N5C6CCC5CNC6)n(C)c(=O)c34)ccc2n1 [Example 88, 3-(5-(2-(3,8-diazabicyclo[3.2.1]octan-8-yl)-3-methyl-4-oxo-4,7-dihydro-3H-pyrrolo[2,3-d]pyrimidin-5-yl)-4-chloro-2H-indazol-2-yl)-N,N-dimethylpropanamide]
SHP2
  pIC50: 7.28
[1]
  pIC50: 5.35

## CN(C)C(=O)CCn1nc2ccc(-c3c[nH]c4nc(N5C6CCC5CNC6)n(C)c(=O)c34)c(Cl)c2c1Cl [Example 89, 3-(5-(2-(3,8-diazabicyclo[3.2.1]octan-8-yl)-3-methyl-4-oxo-4,7-dihydro-3H-pyrrolo[2,3-d]pyrimidin-5-yl)-3,4-dichloro-2H-indazol-2-yl)-N,N-dimethylpropanamide]
SHP2
  pIC50: 7.85
[1]
  pIC50: 6.27

## Cc1nc2ccc(-c3c[nH]c4nc(N5C6CCC5CNC6)n(C)c(=O)c34)c(Cl)c2s1 [Example 90, 2-(3,8-diazabicyclo[3.2.1]octan-8-yl)-5-(7-chloro-2-methylbenzo[d]thiazol-6-yl)-3-methyl-3,7-dihydro-4H-pyrrolo[2,3-d]pyrimidin-4-one]
SHP2
  pIC50: 7.92
[1]
  pIC50: 6.13

## CCn1cc2c(Cl)c(-c3c[nH]c4nc(N5C6CCC5CNC6)n(C)c(=O)c34)ccc2n1 [Example 91, 2-(3,8-diazabicyclo[3.2.1]octan-8-yl)-5-(4-chloro-2-ethyl-2H-indazol-5-yl)-3-methyl-3,7-dihydro-4H-pyrrolo[2,3-d]pyrimidin-4-one]
SHP2
  pIC50: 7.92
[1]
  pIC50: 6.47

## Cc1c2c(Cl)c(-c3c[nH]c4nc(N5[C@H]6CC[C@@H]5[C@H](N)C6)n(C)c(=O)c34)ccc2nn1C [Example 94, 2-((1R,2R,4S)-2-amino-7-azabicyclo[2.2.1]heptan-7-yl)-5-(4-chloro-2,3-dimethyl-2H-indazol-5-yl)-3-methyl-3,7-dihydro-4H-pyrrolo[2,3-d]pyrimidin-4-one]
SHP2
  pIC50: 8.30
[1]
  pIC50: 7.14

## Cc1nc2ccc(-c3c[nH]c4nc(N5[C@H]6CC[C@@H]5[C@H](N)C6)n(C)c(=O)c34)c(Cl)c2s1 [Example 95, 2-((1R,2R,4S)-2-amino-7-azabicyclo[2.2.1]heptan-7-yl)-5-(7-chloro-2-methylbenzo[d]thiazol-6-yl)-3-methyl-3,7-dihydro-4H-pyrrolo[2,3-d]pyrimidin-4-one]
SHP2
  pIC50: 8.60
[1]
  pIC50: 7.17

## CN[C@@H]1C[C@@H]2CC[C@H]1N2c1nc2[nH]cc(-c3ccc4nn(C)cc4c3Cl)c2c(=O)n1C [Example 97, 5-(4-chloro-2-methyl-2H-indazol-5-yl)-3-methyl-2-((1R,2R,4S)-2-(methylamino)-7-azabicyclo[2.2.1]heptan-7-yl)-3,7-dihydro-4H-pyrrolo[2,3-d]pyrimidin-4-one]
SHP2
  pIC50: 8.11
[1]
  pIC50: 7.09

## CCn1cc2c(Cl)c(-c3c[nH]c4nc(N5[C@H]6CC[C@@H]5[C@H](NC)C6)n(C)c(=O)c34)ccc2n1 [Example 98, 5-(4-chloro-2-ethyl-2H-indazol-5-yl)-3-methyl-2-((1R,2R,4S)-2-(methylamino)-7-azabicyclo[2.2.1]heptan-7-yl)-3,7-dihydro-4H-pyrrolo[2,3-d]pyrimidin-4-one]
SHP2
  pIC50: 8.00
[1]
  pIC50: 6.72

## Cn1nc2ccc(-c3c[nH]c4nc(N5C6CCCC5CNC6)n(C)c(=O)c34)c(Cl)c2c1Cl [Example 99, 2-(3,9-diazabicyclo[3.3.1]nonan-9-yl)-5-(3,4-dichloro-2-methyl-2H-indazol-5-yl)-3-methyl-3,7-dihydro-4H-pyrrolo[2,3-d]pyrimidin-4-one]
SHP2
  pIC50: 8.35
[1]
  pIC50: 7.24

## Cn1nc2ccc(-c3c[nH]c4nc(N5C6CCCC5CNC6)n(C)c(=O)c34)c(F)c2c1Cl [Example 100, 2-(3,9-diazabicyclo[3.3.1]nonan-9-yl)-5-(3-chloro-4-fluoro-2-methyl-2H-indazol-5-yl)-3-methyl-3,7-dihydro-4H-pyrrolo[2,3-d]pyrimidin-4-one]
SHP2
  pIC50: 8.22
[1]
  pIC50: 7.02

## CCn1nc2ccc(-c3c[nH]c4nc(N5[C@H]6CC[C@@H]5[C@H](N)C6)n(C)c(=O)c34)c(Cl)c2c1OC [Example 102, 2-((1R,2R,4S)-2-amino-7-azabicyclo[2.2.1]heptan-7-yl)-5-(4-chloro-2-ethyl-3-methoxy-2H-indazol-5-yl)-3-methyl-3,7-dihydro-4H-pyrrolo[2,3-d]pyrimidin-4-one]
SHP2
  pIC50: 8.05
[1]
  pIC50: 7.06

Source: patent US12037345B2, “Heterobicyclic compounds for inhibiting the activity of SHP2” (TAIHO PHARMACEUTICAL CO., LTD., priority 2018, dated 2024)
